Literature values, collected in US8263578B2, “Stable bortezomib formulations” (InnoPharma, Inc., priority 2010, dated 2012).
Like-named read-outs stand apart in the source and are kept apart here.

Details: 25° C.

Question: Which results are given for `CC(C)C[C@H](NC(=O)[C@H](Cc1ccccc1)NC(=O)c1cnccn1)B(O)O` [Bortezomib, N-(2-pyrazine) carbonyl-L-phenylalanine-L-leucine boronic acid]?
Answer: degraded (0.5 mg/mL in ethanol:normal saline solution (2:98, pH 2.8), 1 month): 20%; degraded (propylene glycol:ethanol:water (50:10:40), 8 months): 20%
